Data on 18 compounds can be found in US20130005739A1, “PHARMACEUTICAL PREPARATIONS COMPRISING A COS RELEASING COMPOUND” (LUDWIG BOLTZMANN CLUSTER FUER KARDIOVASKULAERE FORSCHUNG, priority 2009, published 2013).

In data set [1] the test system is smooth muscle preparations. As to the kind of experiment: Vasodilatory activity on smooth muscle preparations (preparation not specified). Type of data set: cell-based, guinea pigs. The note with it: for vasodilatory activity on smooth muscle preparations: setup of 4.3, aqueous solution; for EC50: Cavia porcellus, setup of 4.3, preparation not specified, read-out: EC50 vasodilatory activity (negative controls). On the procedure:
(§1) The COS-releasing compounds according to the present invention were tested on isolated muscle-preparations of the aorta, arteria pulmonalis, terminal ileum, papillary muscle and the right atrium (derived from guinea pigs) for their vasodilatory effect.
(§2) Guinea pigs of both sexes (340-480 g) were killed with a blow on the neck. After excision of the heart, the aorta and the ileum were dissected. The aorta was cleaned of loosely adhering fat and connective tissue and cut into rings of 2 mm width. The terminal portion of the ileum was removed and the 10 cm nearest to the caecum were discarded. The intestine was placed in a nutrient solution. The intestine was cleaned by flushing with nutrient solution and cut into pieces of 2 to 3 cm length. The arteria pulmonalis was dissected close to the heart, cleaned and cut into rings of 2 mm width. Papillary muscles were dissected from the right ventricle for contractility measurements. Purkinje fibres were carefully removed to prevent spontaneous activity. Only muscles with a diameter of less than 0.87 mm were used in order to have a sufficient oxygen supply. Chronotropic activity was tested on guinea-pig isolated right atria.
(§3) After isolation the preparations (aortic rings, terminal ilea, arteria pulmonalis rings, papillary muscles and right atria) were stored at room temperature in gassed (95% O2-5% CO2) Krebs-Henseleit solution with the following composition (in mmol/l): NaCl 114.9, KCl 4.73, CaCl2 3.2, MgSO4 1.18, NaHCO3, 24.9, KH2PO4 1.18, glucose 10; pH 7.2-7.4.
(§4) Isometric contraction force of electrically stimulated papillary muscles (1 Hz), terminal ilea precontracted by 60 mmol/l KCl, aortic and arteria pulmonalis rings precontracted by 90 mmol/l KCl as well as spontaneous activity of right atria was measured by the method described by Reiter (Reiter, M. Bioassay of inotropic agents on the isolated papillary muscle. Arzneim. Forsch. 1967, 17, 1249-1253).
(§5) The preparations were placed in a continuously oxygenated (95% O2 and 5% CO2) bath of 35 ml nutrient solution to guarantee sufficient oxygen supply and appropriate pH as well as circulation of nutrient solution with and without test compound. The experiments were performed at a temperature of 37±1° C. The smooth and heart muscle preparations were connected with one end to a tissue holder and the other to a force transducer (Transbridge™, 4-Channel Transducer Amplifier, World Precision Instruments, Sarasota, Fla., USA). Papillary muscles were electrically driven with an Anapulse Stimulator Model 301-T and an Isolation Unit Model 305-1 (WPI, Hamden, Conn., USA) at a frequency of 1 Hz and a pulse duration of 3 ms. Amplitude of stimulation pulse was adjusted 10% above threshold level. Resting tension of either 3.92 mN (papillary muscles), 10.37 mN (right atria) or 19.6 mN (aortic and arteria pulmonalis rings) was kept constant throughout the experiments.
(§6) Signals were recorded with a chart recorder (BD 112 Dual Channel, Kipp & Zonen) and evaluated. For statistical analyses the arithmetic means and standard error of the mean (SEM) of n experiments were calculated. Statistical significance of the results was evaluated by the Student's t-test for paired observations. EC50-values were graphically determined from the concentration response curves.
(§7) Stock solutions of the compounds were dissolved in distilled water every day and were further diluted with modified Krebs-Henseleit solution to the required concentrations (1, 3, 10, 30 and 100 μmol/l).
Compounds CRC59, CRC59HCl, CRC60 and CRC60HCl as indicated in the table below were used as negative controls in the present experimental setup. Due to the exchange of sulfur against oxygen, said compounds are not able to release COS.

A further data set relates to arteria pulmonalis. The data set is described as follows: Isometric contraction force of isolated arteria pulmonalis rings precontracted by KCl. Type of data set: cell-based, guinea pigs. The note with it: Cavia porcellus; arteria pulmonalis rings precontracted by 90 mmol/l KCl. As for the experimental part:
as §1, §2, §3, §4, §5, §6, §7

The subject of the next data set is papillary muscle. As to the kind of experiment: Isometric contraction force of electrically stimulated papillary muscles. Type of data set: cell-based, guinea pigs. The note with it: Cavia porcellus; electrically stimulated (1 Hz). As for the experimental part:
as §1, §2, §3, §4, §5, §6, §7

In another data set the test system is terminal ileum. As to the kind of experiment: Isometric contraction force of isolated terminal ilea precontracted by KCl. The note with it: Cavia porcellus; terminal ilea precontracted by 60 mmol/l KCl. The data set is classed as cell-based, guinea pigs. As for the experimental part:
as §1, §2, §3, §4, §5, §6, §7

For another data set, the system named is aorta. The data set is described as follows: Isometric contraction force of isolated aortic rings precontracted by KCl. The data set is classed as cell-based, guinea pigs. The note with it: for EC50: Cavia porcellus, aortic rings precontracted by 90 mmol/l KCl, Krebs-Henseleit solution, 37°C. On the procedure: as §1, §2, §3, §4, §5, §6, §7
Another data set deals with right atrium. The data set is described as follows: Spontaneous (chronotropic) activity of isolated right atria. Type of data set: cell-based, guinea pigs. The note with it: Cavia porcellus. As for the experimental part: as §1, §2, §3, §4, §5, §6, §7
The nature of data set [2]: Stability in aqueous solution (concluded from inactivity in aqueous setup). Particulars: conditions of 4.3. The data set is classed as physicochemical. From the text:
Some of the COS releasing compounds according to formula (I) may, however, release COS in a spontaneous hydrolysis reaction due to the presence of H2O in aqueous solutions, suspensions, and the like. Said compounds may also be referred to as being “instable compounds” in aqueous solutions. The determination of the stability of COS releasing compounds according to the present invention may easily be determined, e.g. by dissolving a compound to be tested in an aqueous solution and determining the amount of COS released over time.

In the next data set the test system is aortic rings. The data set is described as follows: Contraction force of aortic rings in blood plasma. Type of data set: cell-based, guinea pigs. Particulars: 100 μM, guinea pig blood plasma, KCl 90 mM, after 60 minutes. As for the experimental part: Guinea pigs of both sexes (340-480 g) were killed with a blow on the neck. The thorax was opened immediately and heparinized blood was collected. After centrifugation of the blood, the blood plasma was obtained which was used in the further experiments. Further, the aorta of the guinea pigs was excised and prepared as described in 4.3. Thus, the aortic rings were present at room temperature in Krebs-Henseleit solution and put under a resting tension. The contraction force was determined as described under 4.3. A stock solution of CRC80HCl in distilled water was prepared. CRC80HCl was used in a final concentration of 100 μM in the experiments.
In a second experiment, the Krebs-Henseleit solution was exchanged with blood plasma of the guinea pigs gained as described above prior to the addition of CRC80HCl. Thus, the Krebs-Henseleit solution was exchanged by 6 ml blood plasma and KCl was added 15 minutes later to a final concentration of 90 mM. Once a steady state was reached, CRC80HCl was added to a final concentration of 100 μM and the contraction force was recorded over a period of 60 minutes. After the period of 60 minutes, a decrease of the contraction force of 39% was observed.

In a further data set the test system is isolated mouse heart. The data set is described as follows: Isolated mouse heart, Langendorff perfusion. Type of data set: cell-based, female OF-1 mice. As for the experimental part: Hearts from female OF-1 mice were excised, cannulated and perfused retrogradely, according to the Langendorff technique, with modified oxygenated Krebs-Henseleit-buffer at constant pressure. After 15 min of baseline perfusion, CRC1HCl (10 μM) was administered into the coronary perfusion system for 10 min. Coronary flow (CF), heart rate (HR), aortic pressure (AoP), concentrations of K^+, Na^+, Ca^2+ and the pH-value were monitored throughout the whole experiment (CRC1HCl-group, n=8; control group, n=8).
In a second set of experiments in the setup as described above, nitro-L-arginine (L-NA) (n=6) and PNU-37883A (n=4) were evaluated as potential inhibitors of CRC1HCl (10 μM) activity. The compounds were added to final concentrations of 100 μM (L-NA) and 10 μM (PNU-37883A).
Also, the myocardial consumption of lactate and glucose was monitored in both the control-group and the CRC1HCl-group.

Setting [3] is: 10 μM, vs control, data not shown.

Molecules are shown by their SMILES. A value given as a limit tells only on which side of the number the result lay.

What is called melting point is the temperature of the solid-liquid transition. `COc1ccc2ncn(C(=S)SC)c2c1` [CRC6] returned a melting point of 64 to 87 °C.

For the compound `CC(C)OC(=O)n1ccnc1` [CRC60], in [1], the “vasodilatory activity on smooth muscle preparations” value is reported as “did not show vasodilatory activity”.

The EC50 is the midpoint of the concentration-response curve. On to `COc1ccc(CSC(=S)n2ccnc2)cc1` [CRC10HCl], for which the EC50 is 24 µM in the data set with arteria pulmonalis; more than 100 µM in the data set with papillary muscle; 100 µM in the data set with terminal ileum; 12.8 µM with aorta; more than 100 µM with right atrium.

On to `CSC(=S)n1ccnc1C` [CRC5HCl], for which the EC50 was 11.2 µM in the data set on arteria pulmonalis; more than 100 µM with papillary muscle; 9.5 µM with terminal ileum; 6.3 µM with aorta; more than 100 µM in the data set with right atrium.

Regarding `CSC(=S)n1c(C)nc2ccccc21` [CRC4HCl], the EC50 in the data set on arteria pulmonalis was 25.1 µM; with papillary muscle, more than 100 µM; in the data set with terminal ileum, 25.6 µM; in the data set with aorta it was 22.8 µM; in the data set on right atrium, 56 µM.

Consider `CN(C)CCOC(=S)OCCN(C)C.Cl.Cl` [CRC72HCl], for which, in data set [1], the “vasodilatory activity on smooth muscle preparations” value is “inactive”. Moreover, in data set [2], the “stability in aqueous solutions” value was “stable in aqueous solutions”.

In turn, `S=C(N1CCN(C(=S)n2ccnc2)CC1)n1ccnc1` [CRC66] gave a melting point of 225 to 226 °C.

As to `CC(=O)OCCSC(=S)n1ccnc1` [CRC13HCl], the EC50 in the data set with arteria pulmonalis is 24 µM; in the data set with papillary muscle, 77 µM; in the data set on terminal ileum, 100 µM; in the data set on aorta, 5.75 µM; in the data set on right atrium, more than 100 µM.

For `CCOC(=S)OCCCN(C)C.Cl` [CRC80HCl], the “decrease of the contraction force” value in the data set with aortic rings is 39%. For the same compound, in the data set with aorta (100 μM, period of 45 minutes), the “vasodilatory activity on the aortic ring in Krebs-Henseleit solution” value is on record as “did not show a vasodilatory activity”.

`CSC(=S)n1ccnc1.Cl` [CRC1HCl]: a half-maximal response in the data set on arteria pulmonalis (EC50) required 6.9 µM. Also, in the data set with isolated mouse heart (10 μM for 10 min, vs control), the “aortic pressure (AoP)” value is given as “not significantly affected or altered”, the “concentration of Ca2+ in coronary effusate” value is recorded as “not significantly affected or altered”, the “concentration of K+ in coronary effusate” value is reported as “not significantly affected or altered” and the “concentration of Na+ in coronary effusate” value is listed as “not significantly affected or altered”. Besides, in the data set on isolated mouse heart (10 μM for 10 min, vs control), the “heart rate (HR)” value is reported as “not significantly affected or altered” and the “pH-value of coronary effusate” value is given as “not significantly affected or altered”. In addition, the “coronary flow (CF)” value with isolated mouse heart (10 μM for 10 min, during and 30 minutes after administration, vs control, p<0.05) is reported as “significantly increased”. In the data set on isolated mouse heart (setting [3]), the “myocardial consumption of glucose” value is listed as “not significantly affected or altered” and the “myocardial consumption of lactate” value is on record as “not significantly affected or altered”. Besides, in the data set on isolated mouse heart (CRC1HCl 10 μM with PNU-37883A 10 μM, data not shown), the “effect of inhibition of ATP-sensitive potassium-channels on the vasodilatory effect” value is on record as “had no effect”. In addition, the “effect of inhibition of nitric oxide synthase on the vasodilatory effect” value in the data set on isolated mouse heart (CRC1HCl 10 μM with nitro-L-arginine 100 μM, data not shown) is “had no effect”. In the data set with papillary muscle, the EC50 came out at 78 µM. This compound displayed an EC50 in the data set with terminal ileum of 5.7 µM. Also, the EC50 in the data set with aorta was 7.8 µM. Also, in the data set on right atrium, the EC50 was more than 100 µM.

For `S` [H2S, hydrogen sulfide, reference compound], the EC50 in the data set with aorta amounted to 107 µM.

As for `COc1cc(CSC(=S)n2ccnc2)cc(OC)c1OC` [CRC33], the melting point was 110 to 113 °C. In the data set with arteria pulmonalis, the EC50 was found to be 7.9 µM. This compound registered an EC50 with papillary muscle of more than 100 µM. Further, it took 15.3 µM to reach a half-maximal effect in the data set with terminal ileum (EC50). The same compound displayed an EC50 with aorta of 2.98 µM. In addition, in the data set with right atrium, the EC50 worked out at 26.5 µM.

`O=C(OC1CCCCC1)n1ccnc1` [CRC59]: the “vasodilatory activity on smooth muscle preparations” value in [1] was “did not show vasodilatory activity”.

With `CCOC(=O)CCSC(=S)n1ccnc1` [CRC11HCl], the EC50 in the data set on arteria pulmonalis was 19.8 µM; in the data set with papillary muscle, more than 100 µM; with terminal ileum, 32.1 µM; in the data set with aorta, 16 µM; in the data set with right atrium, more than 100 µM.

In the case of `Cl.O=C(OC1CCCCC1)n1ccnc1` [CRC59HCl], in [1], the EC50 is more than 100 µM and the “vasodilatory activity on smooth muscle preparations” value is listed as “did not show vasodilatory activity”.

For the compound `Cc1nccn1C(=S)SCc1ccccc1` [CRC9HCl], the EC50 in the data set on arteria pulmonalis was 10.5 µM; with papillary muscle, more than 100 µM; with terminal ileum it was 17.2 µM; with aorta, 3.36 µM; in the data set on right atrium, 15.3 µM.

Turning to `S=C(SCc1ccccc1)n1ccnc1` [CRC8HCl], the EC50 with arteria pulmonalis was 63 µM; in the data set on papillary muscle, 26 µM; with terminal ileum, 15.3 µM; in the data set with aorta, 20.1 µM; in the data set with right atrium it was more than 100 µM.

As for `CC(C)OC(=O)n1ccnc1.Cl` [CRC60HCl], in data set [1], the EC50 is more than 100 µM and the “vasodilatory activity on smooth muscle preparations” value was “did not show vasodilatory activity”.
